SMILES strings stand for the structures. Where only a bound is given, the exact number is not on record here.

The conditions of data set [1]: with and without metabolic activation; cited from earlier work.
Data set [2] has as its system rat. To be noted: cited from earlier work.
For another data set, the system named is rabbit skin. The note with it: cited from earlier work.
A further data set is described as follows: Solubility in methanol. In kind it is physicochemical. The text has this:
A matrix of polyirnide copolymers was synthesized by using Bisaniline-P, Bisaniline-M, and paraphenylenediamine (PPDA). Partial molar substitutions of PPDA (up to 50 mole percent) were used in order to increase glass transition temperatuer and/or thermal oxidative stability. Pre-polymer molecular weight was also adjusted to favorably impact processing parameters as well as the final Tg. Each copolymer was formulated at a molar ratio of 2 NE: 2 BTDE: 3 Diamine. All of the resin systems were synthesized using standard techniques known in the industry. In some of the BIS-P formulations, n-methylpyrrilidinone (NMP) was used as a solvent in addition to methanol. This was done in order to maintain the solubility of the fairly large molecular-weight BIS-P diamine. […] A detailed description of the low-toxicity polyimnide systems that were developed is shown below in Table IV.

In data set [3] the test system is rat. Description: Acute oral LD50. The format is in vivo. The note with it: vs. MDA. From the text:
Except for BAX, the advantages of these diamines include low cost (<$50/pound) as well as low toxicity. […] (ADD IN FNOTE 19) Table I compares the toxicological data of MDA vs. That of Bisaninine-P and Bisaniline-M. In addition, the Ames Mutagenicity Assays for Bisaniline-P and Bisaniline-M were negative with and without metabolic activation. (ID)

For data set [4] the following is noted: cited from earlier work; for Carcinogenicity: animals, where stated; for Toxicity: in vivo.
The subject of data set [5] is rat. To be noted: cited from earlier work. This is another data set of the same source.

With `CC(C)(c1ccc(N)cc1)c1cccc(C(C)(C)c2ccc(N)cc2)c1` [BIS-M, 4,4'-(1,3-phenylene-bis(1-methylethylidene))bisaniline], the “Ames Mutagenicity Assay” value in data set [1] was “negative”. Moreover, the “Acute Oral LD50” value in the data set with rat [2] is 6,240 mg/kg. Besides, the “Skin irritation (printed in the Acute Dermal LD50 line)” value in the data set on rabbit skin was “Non-irritating”. Further, the Solubility in methanol result in the data set “Solubility in methanol” was “readily soluble”. In addition, the “Acute oral LD50 compared with that of MDA” value in the data set on rat [3] was “more than ten times higher”.

As to `Nc1ccc(Cc2ccc(N)cc2)cc1` [MDA, 4,4'-methylenedianiline, reference compound], in the data set on rat [2], the “Acute Oral LD50” value was 347 mg/kg. Moreover, in data set [4], the Carcinogenicity result is “known animal carcinogen”; the Toxicity entry was “known kidney and liver toxin”. The Human carcinogenicity result in data set [4] (human) is recorded as “suspected human carcinogen”. In addition, the “Acute Dermal LD50” value in the data set on rat [5] is reported as 200 mg/kg.

Regarding `CC(C)(c1ccc(Oc2ccc(N)cc2)cc1)c1ccc(Oc2ccc(N)cc2)cc1` [BAPP, 2,2-bis(4-[4-aminophenoxyl]phenyl) propane], in data set [4], the Carcinogenicity result is listed as “non-carcinogenic” and the Toxicity entry is reported as “non-toxic”.

Consider `Nc1ccc(N)cc1` [PPDA, para-phenylenediamine], for which, in data set [4], the Carcinogenicity result is recorded as “no carcinogenic activity in animals”.

`CC(C)(c1ccc(N)cc1)c1ccc(C(C)(C)c2ccc(N)cc2)cc1` [BIS-P, 4,4'-(1,4-phenylene-bis(1-methylethylidene))bisaniline]: in data set [1], the “Ames Mutagenicity Assay” value is “negative”. In the data set with rat [2], the “Acute Oral LD50” value was > 5,000 mg/kg. The “Acute Dermal LD50” value in the data set on rat [5] is reported as > 2,000 mg/kg. Besides, the “Acute oral LD50 compared with that of MDA” value in the data set on rat [3] was “more than ten times higher”.

The values above are taken from patent publication US6184333A, “Low-toxicity, high-temperature polyimides” (Maverick Corporation, priority 1999, dated 2001).
